Values quoted from earlier work, collected in US9592230B2, “Substituted imidazoles as PDE10A inhibitors” (priority 2008, dated 2017).

Legend:
[1] = test system: amphetamine induced hyperactivity; conditions: rats
[2] = test system: cataleptic effect of the D2 receptor antagonist haloperidol; conditions: rats
[3] = test system: hyperactivity in rats induced by PCP

COc1ccc(Cc2nccc3cc(OC)c(OC)cc23)cc1OC [Papaverine, papaverine]
reduction of amphetamine induced hyperactivity [1]: insignificant
catalepsy on its own ([2]; alone): did not cause catalepsy on its own
effect on the cataleptic effect of haloperidol ([2]; together with haloperidol): potentiated the cataleptic effect
hyperactivity induced by PCP [3]: reduced hyperactivity
